Experimental data as given in BindingDB's records for doi:10.1016/j.ejmech.2014.11.002 (Universitat Rovira I Virgili, 2015).

Key:
[1] = biological target: Cytosolic beta-glucosidase (Bos taurus); assay: Inhibition of bovine liver beta-glucosidase at pH 7.3 incubated for 10 to 30 mins using beta-D-glycopyranoside substrate by spectrophotometry
[2] = biological target: Cytosolic beta-glucosidase (Bos taurus); assay: Inhibition of bovine liver beta-glucosidase at pH 5.5 incubated for 10 to 30 mins using beta-D-glycopyranoside substrate by spectrophotometry

| Ki [1] | Ki [2] | Compound |
| --- | --- | --- |
| 11.1 µM | 66 µM | OC[C@H]1O[C@@H]2N=C(SCCCCCCCCCCCCCCCCF)O[C@@H]2[C@@H](O)[C@@H]1O |
| 26.4 µM | 45 µM | COC(=O)CCCCCCCCCCCCCCCSC1=N[C@H]2O[C@H](CO)[C@@H](O)[C@H](O)[C@H]2O1 |
